Data set [1] in a line: Hygroscopicity test according to the European Pharmacopoeia, 5.11. The settings on record: 80±2% relative humidity, 25° C., 24 hours. It is filed as physicochemical. On the procedure: The hygroscopicity test was carried out according to the European Pharmacopoeia, 5.11 Characters Section in Monographs at ambient temperature (about 25° C.) on substance “as is”.
Desiccator with saturated ammonium chloride solution was prepared as follows: to a 100 mL of water was added accurately weighed 46.3 g of ammonium chloride under mixing. The solubility of ammonium chloride in water at ambient temperature is about 41.4 g/100 mL water at 30° C. An amount of amorphous ibrutinib was placed in a glass weighing vessel with stopper (m1) and weighed (m2). The un-stoppered vessel was placed in a desiccator containing a saturated solution of ammonium chloride (80±2% relative humidity) at 25° C. for 24 hours. The weighing vessel was stoppered and weighed (m3). The percentage increase in mass was calculated according to the following formula: […]
The following Table 10 includes the standard defined hygroscopicity values according to the European Pharmacopoeia, 5.11 Characters Section in Monographs: […]

For data set [2] the following is noted: rats; cited from earlier work.

Turning to `C=CC(=O)N1CCC[C@@H](n2nc(-c3ccc(Oc4ccccc4)cc3)c3c(N)ncnc32)C1` [amorphous ibrutinib], in data set [1], the degree of hygroscopicity entry is recorded as “slightly hygroscopic”. For the same compound, the “Increase in mass %” value in data set [1] (substance as is) is recorded as 1.24%. The “Increase in mass g” value in data set [1] (m3 minus m2) is 0.01077 g.
Take `C=CC(=O)N1CCC[C@@H](n2nc(-c3ccc(Oc4ccccc4)cc3)c3c(N)ncnc32)C1` [ibrutinib, 1-[(3R)-3-[4-amino-3-(4-phenoxyphenyl)-1H-pyrazolo[3,4-d]pyrimidin-1-yl]piperidin-1-yl]prop-2-en-1-one]: in data set [2], the oral bioavailability was 22.8%.

Source of the values: patent US10280173B2, “Ibrutinib solid forms and production process therefor” (WAVELENGTH ENTERPRISES LTD., priority 2014, dated 2019).
